Some test systems named below: SF-539; MOLT-4; SK-MEL-2; HCC 2998; SK-OV-3; OVCAR-4; SR; EKVX; NCI-H522; CCRF-CEM; NCI-H23; U-251; HCT-15; SK-MEL-28; HL-60; TK-10.
Experiment in all cases: growth of human tumour cells (NCI), 48 h

SMILES strings stand for the structures.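 Test compounds were applied to cells in 96-well plates for 48 hours at 5 doses. GI50 = concentration required for 50% inhibition of growth.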 Active and inactive are the calls of the source. Cut-off read from the data, not from the text of the source: active = GI50 up to about 1.1 µM and inactive = higher.

Consider `N=C(NC(=S)N1CCCCC1)N1CCCCC1`, for which the GI50 in the test with SF-539, in the test with MOLT-4, with SK-MEL-2, in the test with HCC 2998, in the test with SK-OV-3 and with OVCAR-4 was > 100 µM (inactive) throughout. Further, the GI50 with SR, in the test with EKVX, with NCI-H522, in the test on CCRF-CEM, in the test with NCI-H23 and in the test on U-251 was > 100 µM (inactive) each time. Also, the GI50 with HCT-15 was more than 100 µM; in the test with SK-MEL-28 it was > 100 µM (inactive); in the test with HL-60 it was > 100 µM (inactive); in the test on TK-10, > 100 µM (inactive).

As to `O=[N+]([O-])c1ccccc1[S+]([O-])c1ccccc1` (centres undefined), the GI50 in the test with SF-539 is 70.6 µM (inactive); in the test with MOLT-4 it was 57 µM (inactive); in the test with SK-MEL-2, > 100 µM (inactive); with HCC 2998, 97.7 µM (inactive); in the test with SK-OV-3, > 100 µM (inactive); in the test with OVCAR-4 it was 49.2 µM (inactive). The GI50 in the test with SR is 71.8 µM (inactive); in the test with NCI-H522, 65.6 µM (inactive); with CCRF-CEM it was 47.8 µM (inactive); with NCI-H23, 44.5 µM (inactive); in the test with U-251, 41.2 µM (inactive); with HCT-15, 38.7 µM. In addition, the results for the GI50 in the test with SK-MEL-28, with HL-60 and in the test on TK-10 were > 100 µM (inactive), 27.7 µM (inactive) and > 100 µM (inactive), respectively.

As for `CN(C)c1ccc(Cc2cc(C(C)(C)C)cc(C(C)(C)C)c2O)cc1`, the GI50 in the test with SF-539 was 20.8 µM (inactive); with MOLT-4, 14.5 µM (inactive); in the test on SK-MEL-2, 6.87 µM (inactive); in the test on HCC 2998, 19.6 µM (inactive); with SK-OV-3 it was 29.3 µM (inactive); with OVCAR-4, 21.3 µM (inactive). Further, the GI50 in the test with SR was 14.6 µM (inactive); in the test on EKVX, 22.1 µM (inactive); in the test on NCI-H522, 18.4 µM (inactive); in the test on CCRF-CEM, 60.1 µM (inactive); in the test on NCI-H23, 16.1 µM (inactive); with U-251, 15.2 µM (inactive). Also, the GI50 with HCT-15 is 15.8 µM; with SK-MEL-28, 20.3 µM (inactive); in the test on HL-60 it was 21 µM (inactive); with TK-10 it was 13.2 µM (inactive).

Consider `CCCCSN1C(=O)c2ccccc2C1=S`, for which the GI50 in the test with SF-539 was 33.3 µM (inactive); with MOLT-4 it was 18.5 µM (inactive); in the test with SK-MEL-2, 34.4 µM (inactive); in the test with HCC 2998, 73.5 µM (inactive); with SK-OV-3, > 100 µM (inactive); in the test on OVCAR-4, 76.6 µM (inactive). Besides, the GI50 was > 100 µM (inactive) with EKVX; > 10 µM (inactive) in the test on NCI-H522; 15.9 µM (inactive) with CCRF-CEM; > 100 µM (inactive) with NCI-H23; > 100 µM (inactive) in the test with U-251; more than 100 µM in the test on HCT-15. Further, the GI50 in the test with SK-MEL-28 was > 100 µM (inactive); in the test on HL-60 it was 21.4 µM (inactive); in the test on TK-10, > 100 µM (inactive).

In the case of `CN1CC(=O)N(C)c2[nH]cnc2C1=O`, the GI50 in the test with SF-539, in the test on MOLT-4, in the test on HCC 2998, with SK-OV-3, in the test on OVCAR-4 and in the test on SR was > 100 µM (inactive) throughout. Besides, the GI50 is > 100 µM (inactive) in the test with EKVX; > 100 µM (inactive) in the test with CCRF-CEM; > 100 µM (inactive) in the test with NCI-H23; > 100 µM (inactive) with U-251; more than 100 µM in the test on HCT-15; > 100 µM (inactive) in the test with SK-MEL-28. Moreover, the GI50 in the test with HL-60 and in the test with TK-10 was > 100 µM (inactive) each time.

For `CC1(C)O[C@H]2[C@H](O)C[C@](O)(CO)C[C@H]2O1`, the GI50 in the test with SF-539, with MOLT-4, in the test on SK-MEL-2, with SK-OV-3, with OVCAR-4 and in the test on SR was > 100 µM (inactive) in each case. For the same compound, the GI50 in the test with EKVX was > 100 µM (inactive); in the test with NCI-H522, > 100 µM (inactive); with NCI-H23, > 100 µM (inactive); with U-251 it was > 100 µM (inactive); in the test with HCT-15, more than 100 µM; in the test on SK-MEL-28 it was > 100 µM (inactive). In the test with TK-10, the GI50 was > 100 µM (inactive).

For the compound `C=CCOCCCCC(C(C)=O)C(=O)OC` (centres undefined), the GI50 in the test with SF-539, with MOLT-4, in the test on SK-MEL-2, with HCC 2998, in the test on SK-OV-3 and in the test with OVCAR-4 was > 100 µM (inactive) in each case. For the same compound, the GI50 with SR is > 100 µM (inactive); in the test with NCI-H522, > 100 µM (inactive); with CCRF-CEM, > 100 µM (inactive); in the test with NCI-H23 it was > 100 µM (inactive); in the test on U-251, > 100 µM (inactive); in the test on HCT-15, more than 100 µM. The GI50 in the test with SK-MEL-28, with HL-60 and with TK-10 was > 100 µM (inactive) in each case.

Take `Cc1ccc(NC(=O)C2C3C=CC(O3)C2C(=O)O)cc1` (centres undefined): the GI50 in the test on SF-539, in the test with MOLT-4, with SK-MEL-2, in the test on HCC 2998, with SK-OV-3 and in the test on OVCAR-4 was > 100 µM (inactive) throughout. Moreover, the GI50 in the test with SR is > 100 µM (inactive); in the test on EKVX, > 100 µM (inactive); in the test with NCI-H522, > 100 µM (inactive); in the test on CCRF-CEM, 83.9 µM (inactive); in the test on NCI-H23, > 100 µM (inactive); in the test on U-251, > 100 µM (inactive). Also, the GI50 in the test with HCT-15 was more than 100 µM; in the test with SK-MEL-28 it was > 100 µM (inactive); in the test on HL-60 it was 61.5 µM (inactive); in the test with TK-10, > 100 µM (inactive).

For `c1ccc([B-]23Oc4ccccc4[NH+]2c2ccccc2O3)cc1` (centres undefined), the GI50 in the test with SF-539 was > 100 µM (inactive); in the test on MOLT-4, 25.8 µM (inactive); in the test on SK-OV-3 it was > 100 µM (inactive); in the test on OVCAR-4 it was > 100 µM (inactive); in the test with SR, 37 µM (inactive); in the test on EKVX, > 100 µM (inactive). For the same compound, the GI50 is 16.2 µM (inactive) in the test on NCI-H522; 29.6 µM (inactive) with CCRF-CEM; > 100 µM (inactive) in the test with NCI-H23; > 100 µM (inactive) in the test on U-251; > 100 µM (inactive) with SK-MEL-28; 17.5 µM (inactive) in the test with HL-60. For the same compound, in the test with TK-10, the GI50 was 47.2 µM (inactive).

Regarding `O=[N+]([O-])c1c(/C=N/c2ccccc2)oc(-c2ccc3c(c2)OCO3)c1-c1ccc2c(c1)OCO2`, the GI50 is > 100 µM (inactive) in the test with SF-539; > 100 µM (inactive) with MOLT-4; > 100 µM (inactive) with HCC 2998; 44.9 µM (inactive) in the test on SK-OV-3; > 100 µM (inactive) in the test with OVCAR-4; > 100 µM (inactive) with SR. Further, the GI50 is > 100 µM (inactive) with NCI-H522; > 100 µM (inactive) in the test with NCI-H23; > 100 µM (inactive) in the test with U-251; more than 100 µM in the test on HCT-15; > 100 µM (inactive) with SK-MEL-28; > 100 µM (inactive) in the test on HL-60. Besides, in the test on TK-10, the GI50 was > 100 µM (inactive).

On to `Cc1ccc(C2=C(c3ccccc3)C(O)(c3ccccc3)C(c3ccccc3)=C2c2ccc(C)cc2)cc1`, for which the GI50 with SF-539 was > 100 µM (inactive); in the test on MOLT-4, 7.93 µM (inactive); in the test on SK-MEL-2, 6.17 µM (inactive); in the test on HCC 2998 it was > 100 µM (inactive); in the test on SK-OV-3 it was > 100 µM (inactive); in the test on SR, > 100 µM (inactive). For the same compound, the GI50 in the test on EKVX was 64 µM (inactive); in the test on NCI-H522, > 100 µM (inactive); in the test with CCRF-CEM it was > 10 µM (inactive); in the test on NCI-H23 it was 69.3 µM (inactive); in the test on U-251 it was 31.5 µM (inactive); in the test with HCT-15 it was 35.2 µM. The values for the GI50 in the test on SK-MEL-28 and in the test with TK-10 were > 100 µM (inactive) and 77.4 µM (inactive), respectively.

With `C=C(C)[C@H](O)C(O)CC(C)[C@@H]1CCC23CC12CCC1[C@@]2(C)CCC(OC(C)=O)C(C)(C)C2CC(OC2OC(COC(C)=O)C(O)C(O)C2O)[C@]13C` (some centres undefined), the GI50 in the test with SF-539 was 6.67 µM (inactive); in the test with MOLT-4, 2.34 µM (inactive); in the test on SK-MEL-2, 8.83 µM (inactive); in the test on HCC 2998, 6.35 µM (inactive); with SK-OV-3, 8 µM (inactive); with OVCAR-4 it was 7.71 µM (inactive). The GI50 was 6.67 µM (inactive) in the test on EKVX; 4.35 µM (inactive) in the test on NCI-H522; 2.62 µM (inactive) in the test with CCRF-CEM; 7.59 µM (inactive) with NCI-H23; 4.74 µM (inactive) in the test with U-251; 4.86 µM in the test with HCT-15. Moreover, the GI50 is 7.19 µM (inactive) with SK-MEL-28, 1.62 µM (inactive) with HL-60 and 6.55 µM (inactive) with TK-10.

Take `COC(=O)c1cc2c(nc1C)-c1ccccc1OS2(=O)=O`: the GI50 with SF-539 was 54.5 µM (inactive); in the test on MOLT-4, > 100 µM (inactive); in the test with HCC 2998, > 100 µM (inactive); in the test on SK-OV-3, > 100 µM (inactive); in the test on OVCAR-4, > 100 µM (inactive); in the test with SR, > 100 µM (inactive). Further, the GI50 in the test with EKVX was > 100 µM (inactive); in the test on NCI-H522, > 100 µM (inactive); in the test with CCRF-CEM, > 100 µM (inactive); in the test on NCI-H23, > 100 µM (inactive); in the test on U-251, 70.1 µM (inactive); in the test with HCT-15, more than 100 µM. Further, the GI50 with HL-60 was > 100 µM (inactive); with TK-10, 83.2 µM (inactive).

For the compound `O=C(O)COc1ccc(C(=O)/C(SS/C(C(=O)c2ccc(OCC(=O)O)c(Cl)c2Cl)=C2\C=C(c3ccc(Cl)cc3)SS2)=C2/C=C(c3ccc(Cl)cc3)SS2)c(Cl)c1Cl`, the GI50 in the test with SF-539 is 5.9 µM (inactive); in the test on MOLT-4, 3.58 µM (inactive); in the test with SK-MEL-2, 14.1 µM (inactive); with HCC 2998 it was 12.4 µM (inactive); in the test with SK-OV-3 it was 56.1 µM (inactive); in the test on OVCAR-4, 5.27 µM (inactive). Also, the GI50 is 57.1 µM (inactive) with EKVX; 2.18 µM (inactive) with NCI-H522; 2.29 µM (inactive) in the test with CCRF-CEM; 9.23 µM (inactive) with NCI-H23; 4.2 µM (inactive) with U-251; 5.78 µM in the test with HCT-15. Moreover, the GI50 in the test with SK-MEL-28 is 25.2 µM (inactive); with HL-60, 0.252 µM (active); with TK-10, 24.7 µM (inactive).

The record behind these values is ChEMBL document CHEMBL1201862, “PubChem BioAssay data set” (2004).
